Measured values from patent publication US20100143475A1, “TRANSDERMAL THERAPEUTIC SYSTEM WITH TWO-PHASE RELEASE PROFILE” (priority 2006, published 2010).
Where two headings read alike, the source gives them in different places.

Legend:
[1] = double blind, oral, PDR 58, 2004, cited from earlier work
[2] = Double blind comparison of oral lisuride and placebo in 20 patients with Parkinson's disease; details: up to maximum tolerance dose of 5 mg daily, immediate-release tablet, eight of 20 patients
Source text: The dosage of other active substances was kept unchanged during the trial.

[3] = 20 cm^2 TTS, plasma
Source text: The application site was the upper arm and changed from one arm to the other between two successive periods.

[4] = difference to placebo
[5] = cited from earlier work
[6] = oral, cited from earlier work
[7] = Oral ropinirole trial, comparison of central side effects (Table 5); format: in vivo, human; details: difference to placebo, up to 24 mg (8 mg TID), 6 months
[8] = difference to placebo (footnote: less than placebo), transdermal, 2 (20 cm^2) QOD, 14 weeks
[9] = difference to placebo, transdermal, 2 (20 cm^2) QOD, 14 weeks
[10] = transdermal, 2 (20 cm^2) QOD, 14 weeks, 335 Parkinsonism patients
[11] = oral, 4.5 mg or max. tol. dose, 7 weeks dose esc. +4 weeks
[12] = oral, 4.5 mg or max. tol. dose daily, 7 weeks dose esc. +4 weeks
[13] = up to 24 mg (8 mg TID) daily, 6 months

## CC(C)C[C@H]1C(=O)N2CCC[C@H]2[C@]2(O)O[C@](NC(=O)[C@@H]3C=C4c5cccc6[nH]c(Br)c(c56)C[C@H]4N(C)C3)(C(C)C)C(=O)N12 [Bromocriptine]
[1]; dose range 5.0-30.0 mg, n = 231
  GI side effects: Nausea/vomiting (%): 43%

## C=CCN1C[C@H](C(=O)N(CCCN(C)C)C(=O)NCC)C[C@@H]2c3cccc4[nH]cc(c34)C[C@H]21 [Cabergoline]
[1]; dose range 0.25-1.0 mg, n = 221
  GI side effects: Nausea/vomiting (%): 29.0%

## CCN(CC)C(=O)N[C@H]1C=C2c3cccc4[nH]cc(c34)CC2N(C)C1 (some centres unmarked) [Lisuride, lisuride]
amnesia, fear, abnormal dreams, nervousness, delusions, paranoid reactions, sleeplessness, transdermal, 2 (20 cm^2) QOD, 14 weeks
  Other psych.*: 8
Difference to placebo
  Skin reactions resulting in discontinuation Δ: 11.3
[8]
  Dizziness Δ: 0^♡
  Other psych.* Δ: 0^♡
[9]
  Confusion Δ: 1.2
  Drownsiness Δ: 1.8
  Dyskinesias Δ: 4.1
  Fatigue Δ: 1
  Hallucinations Δ: 3.6
  Hypotension Δ: 1.2
  Nausea Δ: 0.6
  Syncope Δ: 0
  Vomiting Δ: 0.6
Lisuride group, transdermal, 14 weeks
  Skin reactions resulting in discontinuation: 12.5%
[10]
  Confusion: 1.2
  Dizziness: 0.6
  Drownsiness: 3.6
  Dyskinesias: 7.1
  Fatigue: 1
  Hallucinations: 5.4
  Hypotension: 2.4
  Syncope: 0
  Vomiting: 1.2
[2]
  Gastrointestinal symptoms, in particular nausea (patients): 40%
[3]; First application
  Transition level: 32 pg/mL
[3]; Fourth application
  Peak level: 140 pg/mL
  Transition level: 32 pg/mL
[3]; Second application
  Peak level: 125 pg/mL
  Transition level: 23 pg/mL
[3]; Third application
  Peak level: 130 pg/mL
  Transition level: 31 pg/mL

## CCCN[C@H]1CCc2nc(N)sc2C1 [Pramipexol]
[4]; 8 month trial
  Hallucinations Δ: 13
[4]; [11]
  Confusion Δ: 3
  Dizziness Δ: 0.2
  Drownsiness Δ: 2
  Dyskinesias Δ: 10.2
  Fatigue Δ: 24.9
  Hypotension Δ: 6.5
  Nausea Δ: 2
  Other psych.* Δ: 12.4
[1]; dose range 0.375-4.5 mg, n = 388
  GI side effects: Nausea/vomiting (%): 12.4%
[5]; 8 month trial
  patients who reported hallucinations: 17%
[5]; amnesia, fear, abnormal dreams, nervousness, delusions, paranoid reactions, sleeplessness, oral, 4.5 mg or max. tol. dose, 7 weeks dose esc. +4 weeks
  Other psych.*: 28.3
[5]; [12]
  Confusion: 10
  Dizziness: 2.9
  Drownsiness: 9
  Dyskinesias: 14.7
  Fatigue: 29.4
  Hypotension: 8.8
  Nausea: 8.8

## CCCN(CCC)CCc1cccc2c1CC(=O)N2 [Ropinirol]
[1]; dose range 0.5-5.0 mg, n = 157
  GI side effects: Nausea/vomiting (%): 45.8%
[6]; amnesia, fear, abnormal dreams, nervousness, delusions, paranoid reactions, sleeplessness, up to 24 mg (8 mg TID), 6 months
  Other psych.*: 19
[6]; [13]
  Confusion: 9
  Dizziness: 26
  Drownsiness: 20
  Dyskinesias: 34
  Hallucinations: 10
  Hypotension: 2
  Nausea: 30
  Syncope: 3
  Vomiting: 7
[6]; data from restless legs study
  Fatigue: 8^♦
[7]
  Confusion Δ: 7
  Dizziness Δ: 10
  Drownsiness Δ: 12
  Dyskinesias Δ: 21
  Hallucinations Δ: 6
  Hypotension Δ: 1
  Nausea Δ: 12
  Other psych.* Δ: 10
  Syncope Δ: 1
  Vomiting Δ: 3
